Data as given in ChEMBL document CHEMBL5120960, “Unveiling the Structure-Activity Relationships at the Orthosteric Binding Site of P2X Ion Channels: The Route to Selectivity” (J Med Chem, 2022).

Tests used:
Format in all cases: cell-based
[1] = biological target: T1, P2X purinoceptor 4 (Homo sapiens, UniProt Q99571); test: […] activity at human P2X4R expressing HEK293 cells assessed as reduction in intracellular Ca2+ influx pretreated with Fluo-4 for 1 hr followed by compound addition and further incubated for 30 mins in presence of ATP by multimode plate reader analysis
T1 sequence (Q99571 whole entry): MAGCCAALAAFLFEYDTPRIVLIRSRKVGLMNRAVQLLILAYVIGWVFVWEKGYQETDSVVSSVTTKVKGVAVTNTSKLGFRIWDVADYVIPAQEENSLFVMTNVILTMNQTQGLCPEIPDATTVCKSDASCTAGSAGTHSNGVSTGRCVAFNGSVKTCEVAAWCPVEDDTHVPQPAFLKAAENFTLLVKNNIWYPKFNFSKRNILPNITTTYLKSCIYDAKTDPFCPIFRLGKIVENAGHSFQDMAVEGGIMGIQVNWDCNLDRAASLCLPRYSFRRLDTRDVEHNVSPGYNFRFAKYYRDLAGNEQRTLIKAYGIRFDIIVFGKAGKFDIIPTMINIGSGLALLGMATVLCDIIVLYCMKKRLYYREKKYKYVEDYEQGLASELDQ

[2] = biological target: T2, P2X purinoceptor 1 (Homo sapiens, UniProt P51575); test: […] activity at human P2X1R expressing CHO cells assessed as reduction in intracellular Ca2+ influx pretreated with Fluo-4 for 1 hr followed by compound addition and further incubated for 30 mins in presence of ATP by multimode plate reader analysis
T2 sequence (P51575 whole entry): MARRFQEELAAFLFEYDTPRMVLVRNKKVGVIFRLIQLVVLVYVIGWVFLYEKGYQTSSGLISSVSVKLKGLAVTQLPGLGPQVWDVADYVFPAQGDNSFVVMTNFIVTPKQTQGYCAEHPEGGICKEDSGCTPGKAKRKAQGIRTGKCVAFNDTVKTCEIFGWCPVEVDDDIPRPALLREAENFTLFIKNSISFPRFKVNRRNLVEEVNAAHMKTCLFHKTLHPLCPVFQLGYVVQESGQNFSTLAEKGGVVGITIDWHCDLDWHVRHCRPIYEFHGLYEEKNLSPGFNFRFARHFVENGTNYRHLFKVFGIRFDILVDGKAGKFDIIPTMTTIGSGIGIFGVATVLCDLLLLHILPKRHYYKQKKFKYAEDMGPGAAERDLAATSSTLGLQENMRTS

[3] = biological target: T3, P2X purinoceptor 2 (Homo sapiens, UniProt Q9UBL9); test: […] activity at human P2X2R expressing CHO cells assessed as reduction in intracellular Ca2+ influx pretreated with Fluo-4 for 1 hr followed by compound addition and further incubated for 30 mins in presence of ATP by multimode plate reader analysis
T3 sequence (Q9UBL9 whole entry): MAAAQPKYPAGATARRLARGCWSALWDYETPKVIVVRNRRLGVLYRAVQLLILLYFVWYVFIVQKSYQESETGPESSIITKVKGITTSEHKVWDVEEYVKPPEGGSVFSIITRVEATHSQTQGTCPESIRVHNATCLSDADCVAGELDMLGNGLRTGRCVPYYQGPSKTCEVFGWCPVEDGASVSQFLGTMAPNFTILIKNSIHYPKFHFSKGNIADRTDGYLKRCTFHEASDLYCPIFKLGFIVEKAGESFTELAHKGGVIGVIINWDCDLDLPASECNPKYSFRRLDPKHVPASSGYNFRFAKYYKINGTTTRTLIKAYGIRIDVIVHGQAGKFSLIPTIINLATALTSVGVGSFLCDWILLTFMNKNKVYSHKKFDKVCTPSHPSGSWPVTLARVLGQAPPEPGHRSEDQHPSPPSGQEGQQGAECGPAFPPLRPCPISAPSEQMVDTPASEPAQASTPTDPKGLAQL

[4] = biological target: T4, P2X purinoceptor 7 (Homo sapiens, UniProt Q99572); test: […] activity at human P2X7R expressed in HEK293 cells assessed as reduction in YO-PRO-1 iodide dye uptake preincubated for 30 mins followed by YO-PRO-1 iodide addition and measured after 2 hrs by fluorescence based multimode plate reader analysis
T4 sequence (Q99572 whole entry): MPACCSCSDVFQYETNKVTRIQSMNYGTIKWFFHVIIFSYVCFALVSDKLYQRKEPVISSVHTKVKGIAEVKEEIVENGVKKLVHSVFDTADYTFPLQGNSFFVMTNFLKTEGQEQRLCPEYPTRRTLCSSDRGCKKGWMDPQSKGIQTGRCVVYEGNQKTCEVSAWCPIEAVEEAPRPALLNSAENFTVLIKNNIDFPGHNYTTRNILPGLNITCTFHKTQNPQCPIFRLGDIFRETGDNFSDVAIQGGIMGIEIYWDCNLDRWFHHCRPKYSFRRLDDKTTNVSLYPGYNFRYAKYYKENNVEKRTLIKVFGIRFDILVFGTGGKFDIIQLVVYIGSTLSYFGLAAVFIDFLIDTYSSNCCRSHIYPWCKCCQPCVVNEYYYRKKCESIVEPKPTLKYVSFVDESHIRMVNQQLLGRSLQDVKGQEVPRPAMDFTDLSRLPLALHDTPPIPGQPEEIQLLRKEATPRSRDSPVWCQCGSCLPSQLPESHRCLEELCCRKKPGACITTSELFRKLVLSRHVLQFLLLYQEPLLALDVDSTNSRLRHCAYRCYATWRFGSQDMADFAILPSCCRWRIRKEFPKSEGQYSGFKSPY

[5] = biological target: T4, P2X purinoceptor 7; test: […] activity at human P2X7R expressing HEK293 cells assessed as reduction in intracellular Ca2+ influx pretreated with Fluo-4 for 1 hr followed by compound addition and further incubated for 30 mins in presence of ATP by multimode plate reader analysis
[6] = biological target: T5, P2X2/P2X3 heterotrimeric receptor (Homo sapiens, UniProt P56373+Q9UBL9); test: […] activity at human P2X2R/P2X3R expressing CHO cells assessed as reduction in intracellular Ca2+ influx pretreated with Fluo-4 for 1 hr followed by compound addition and further incubated for 30 mins in presence of ATP by multimode plate reader analysis
T5 sequence (Q9UBL9 whole entry): T3 sequence (Q9UBL9 whole entry)
T5 sequence (P56373 whole entry): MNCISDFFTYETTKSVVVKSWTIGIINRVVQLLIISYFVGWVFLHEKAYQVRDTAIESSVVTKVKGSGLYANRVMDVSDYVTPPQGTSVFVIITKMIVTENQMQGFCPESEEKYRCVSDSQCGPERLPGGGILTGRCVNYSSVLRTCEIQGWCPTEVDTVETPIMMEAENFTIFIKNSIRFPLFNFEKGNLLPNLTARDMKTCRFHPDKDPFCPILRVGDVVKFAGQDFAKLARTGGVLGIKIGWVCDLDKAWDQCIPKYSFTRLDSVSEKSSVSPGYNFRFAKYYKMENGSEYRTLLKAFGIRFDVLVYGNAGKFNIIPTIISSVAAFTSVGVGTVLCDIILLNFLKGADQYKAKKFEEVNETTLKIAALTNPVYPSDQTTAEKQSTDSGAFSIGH

[7] = biological target: T6, P2X purinoceptor 3 (Homo sapiens, UniProt P56373); test: […] activity at human P2X3R expressing CHO cells assessed as reduction in intracellular Ca2+ influx pretreated with Fluo-4 for 1 hr followed by compound addition and further incubated for 30 mins in presence of ATP by multimode plate reader analysis
T6 sequence (P56373 whole entry): T5 sequence (P56373 whole entry)

Row | IC50 [1] [µM] | IC50 [2] [µM] | IC50 [3] [µM] | IC50 [4] [µM] | IC50 [5] [µM] | IC50 [6] [µM] | IC50 [7] [µM] | Compound
1 | > 100 | 1.51 | > 100 | > 100 | > 100 | 0.00832 | 1.51 | O=P(O)(O)OP(=O)(O)OP(=O)(O)OC[C@H]1O[C@@H](n2cnc3c(S)ncnc32)[C@H](O)[C@@H]1O
2 | > 100 | 0.00355 | 0.0871 | > 100 | > 100 | 0.129 | 0.741 | O=P(O)(O)OP(=O)(O)OP(=O)(O)OC[C@H]1O[C@@H](n2cnc3c(Cl)ncnc32)[C@H](O)[C@@H]1O
3 | > 100 | > 100 | > 100 | > 100 | > 100 | 0.692 | 30.2 | CCCCNc1ncnc2c1ncn2[C@@H]1O[C@H](COP(=O)(O)OP(=O)(O)OP(=O)(O)O)[C@@H](O)[C@H]1O

Further lines, the compound ahead of its results:

Row | Compound | IC50 [1] [µM] | IC50 [2] [µM] | IC50 [3] [µM] | IC50 [4] [µM] | IC50 [5] [µM] | IC50 [6] [µM] | IC50 [7] [µM]
4 | O=P(O)(O)OP(=O)(O)OP(=O)(O)OC[C@H]1O[C@@H](n2cnc3c(Nc4ccccc4)ncnc32)[C@H](O)[C@@H]1O | 0.891 | > 100 | 0.00372 | > 100 | > 100 | 0.158 | 0.209
5 | Nc1ncnc2c1ncn2[C@@H]1O[C@H](COP(=O)(O)OP(=O)(O)OP(=O)(O)O)[C@@H](O)[C@H]1F | 2.75 | > 100 | 5.62 | > 100 | > 100 | 5.37 | 10.5
6 | [N-]=[N+]=Nc1nc2c(N)ncnc2n1[C@@H]1O[C@H](COP(=O)(O)OP(=O)(O)OP(=O)(O)O)[C@@H](O)[C@H]1O | > 100 | > 100 | > 100 | > 100 | > 100 | > 100 | > 100
7 | O=P(O)(O)OP(=O)(O)OP(=O)(O)OC[C@H]1O[C@@H](n2cnc3c(NCc4ccccc4)ncnc32)[C@H](O)[C@@H]1O | > 100 | > 100 | 3.98 | > 100 | > 100 | 2.69 | > 100
